Experimental data: patent US11358969B2, “Indole AHR inhibitors and uses thereof” (Ikena Oncology, Inc., priority 2017, dated 2022)

target: T1, AHR (UniProt P35869); assay: DRE-Luciferase Reporter Assay (Alternate Method) (Example 1B); format: cell-based, murine or human; details: cell line and AHR activating ligand not specified
T1 construct: IC50
T1 sequence (P35869 1-848): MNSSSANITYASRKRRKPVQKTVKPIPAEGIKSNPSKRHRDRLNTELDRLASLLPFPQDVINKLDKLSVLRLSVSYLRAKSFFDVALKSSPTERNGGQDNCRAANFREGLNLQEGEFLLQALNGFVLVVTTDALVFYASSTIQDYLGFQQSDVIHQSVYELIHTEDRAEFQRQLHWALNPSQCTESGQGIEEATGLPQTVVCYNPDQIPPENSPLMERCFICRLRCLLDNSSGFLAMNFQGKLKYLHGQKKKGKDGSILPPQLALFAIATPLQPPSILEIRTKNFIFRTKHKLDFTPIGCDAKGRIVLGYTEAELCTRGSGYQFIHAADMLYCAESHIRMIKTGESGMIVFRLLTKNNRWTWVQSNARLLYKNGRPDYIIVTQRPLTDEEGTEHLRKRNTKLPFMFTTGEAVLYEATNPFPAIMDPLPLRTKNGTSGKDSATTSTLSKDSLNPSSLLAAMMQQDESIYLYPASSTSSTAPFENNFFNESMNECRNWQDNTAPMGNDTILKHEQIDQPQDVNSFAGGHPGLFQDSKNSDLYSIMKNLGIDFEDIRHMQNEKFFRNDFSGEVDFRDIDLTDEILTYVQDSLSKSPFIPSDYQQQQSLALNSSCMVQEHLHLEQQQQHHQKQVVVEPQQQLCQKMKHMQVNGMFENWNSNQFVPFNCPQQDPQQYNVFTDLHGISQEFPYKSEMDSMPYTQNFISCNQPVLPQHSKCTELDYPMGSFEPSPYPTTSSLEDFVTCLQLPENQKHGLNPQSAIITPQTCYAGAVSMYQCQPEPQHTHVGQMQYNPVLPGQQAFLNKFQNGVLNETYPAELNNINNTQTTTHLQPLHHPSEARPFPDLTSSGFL
Procedure: AHR binds to Dioxin Responsive Elements (DRE) upstream of genes that it activates. One measure of AHR activity is activation of a reporter gene, such as luciferase, downstream of one or multiple DRE elements. Luciferase activity will reflect activation and inhibition of AHR in the cells expressing his reporter.
Murine Hepa1-6 or Hepa-1c1c7 or other murine cell line with a DRE-luciferase reporter either stably or transiently transfected were plated in media in plates (96-well, 384-well or other plates) and incubated overnight at 37° C. in a CO2 incubator or compound and agonist were added at the time of plating. Likewise, human HepG2 or other human cell line with a DRE-luciferase reporter either stably or transiently transfected were plated in media in plates (96-well, 384-well or other plates) and incubated overnight at 37° C. in a CO2 incubator or compound and agonist were added at the time of plating.
At the time that cells are plated or following incubation overnight, an AHR activating ligand, such as TCDD, kynurenine, ITE (2-(1H-indole-3-ylcarbonyl)-4-thiazolecarboxylic methyl ester), VAF347, BNF (beta-naphthoflavone), FICZ (6-formylindolo(3,2-b) carbazole or other AHR ligands, was added with or without AHR antagonist.
Cells were incubated for 4, 15 or 24 hours or another time point and then lysed for determination of luciferase activity as a read-out of the AHR activation or inhibition. Luciferase was measured with a commercial kit such as the Promega Luciferase kit or any kit or reagents that provide the luciferin substrate for measuring luciferase activity. The level of luciferase with only activating ligand added was the maximum signal while the luciferase with no ligand was the minimum signal. IC50 values were determined as the concentration which inhibits half of the luciferase activity.

IC50 [nM]	Structure (SMILES)
< 500	Cc1cnn2c(NC3Cc4ccc(O)cc4C3)cc(-c3cncc(F)c3)nc12 (centres unmarked) [I-51, 2-[[5-(5-Fluoro-3-pyridyl)-3-methyl-pyrazolo[1,5-a]pyrimidin-7-yl]amino]indan-5-ol]
500 to 1000	Oc1ccc2c(c1)CC(Nc1cc(-c3cncc(F)c3)nc3ccnn13)C2 (centres unmarked) [I-52, 2-[[5-(5-Fluoro-3-pyridyl)pyrazolo[1,5-a]pyrimidin-7-yl]amino]indan-5-ol]
< 500	CC(C)Oc1cc(NCCc2c[nH]c3ccccc23)nc(-c2cncc(C#N)c2)n1 [I-54, 5-[4-[2-(1H-indol-3-yl)ethylamino]-6-isopropoxy-pyrimidin-2-yl]pyridine-3-carbonitrile]
< 500	O=C(c1cnn2c(NCCc3c[nH]c4ccccc34)cc(-c3cncc(F)c3)nc12)N1CCCCC1 [I-55, [5-(5-Fluoro-3-pyridyl)-7-[2-(1H-indol-3-yl)ethylamino]pyrazolo[1,5-a]pyrimidin-3-yl]-(1-piperidyl)methanone]
< 500	CN(C)C(=O)c1cnn2c(NCCc3c[nH]c4ccccc34)cc(-c3cncc(F)c3)nc12 [I-56, 5-(5-Fluoro-3-pyridyl)-7-[2-(1H-indol-3-yl)ethylamino]-N,N-dimethyl-pyrazolo[1,5-a]pyrimidine-3-carboxamide]
> 1500	O=C(c1cnn2c(NCCc3c[nH]c4ccccc34)cc(-c3cncc(F)c3)nc12)N1CCNCC1 [I-58, [5-(5-Fluoro-3-pyridyl)-7-[2-(1H-indol-3-yl)ethylamino]pyrazolo[1,5-a]pyrimidin-3-yl]-piperazin-1-yl-methanone]
500 to 1000	Fc1cncc(-c2nc(NCCc3c[nH]c4ccccc34)cc(N3CCNCC3)n2)c1 [I-60, 2-(5-Fluoro-3-pyridyl)-N-[2-(1H-indol-3-yl)ethyl]-6-piperazin-1-yl-pyrimidin-4-amine]
< 500	CNC(=O)c1cnn2c(NCCc3c[nH]c4ccccc34)cc(-c3cncc(F)c3)nc12 [I-61, 5-(5-Fluoro-3-pyridyl)-7-[2-(1H-indol-3-yl)ethylamino]-N-methyl-pyrazolo[1,5-a]pyrimidine-3-carboxamide]
< 500	Fc1cncc(-c2nc(NCCc3c[nH]c4ccccc34)cc(N3CCCCC3)n2)c1 [I-62, 2-(5-Fluoro-3-pyridyl)-N-[2-(1H-indol-3-yl)ethyl]-6-(1-piperidyl)pyrimidin-4-amine]
< 500	CN(C)c1cc(NCCc2c[nH]c3ccccc23)nc(-c2cncc(F)c2)n1 [I-63, 2-(5-Fluoro-3-pyridyl)-N6-[2-(1H-indol-3-yl)ethyl]-N4,N4-dimethyl-pyrimidine-4,6-diamine]
< 500	Fc1cncc(-c2nc(NCCc3c[nH]c4ccccc34)cc(N3CCOCC3)n2)c1 [I-64, 2-(5-Fluoro-3-pyridyl)-N-[2-(1H-indol-3-yl)ethyl]-6-morpholino-pyrimidin-4-amine]
< 500	Cc1[nH]c2c(F)cccc2c1CCNc1cc(-c2cncc(F)c2)nc2c(C(C)C)cnn12 [I-66, N-[2-(7-fluoro-2-methyl-1H-indol-3-yl)ethyl]-5-(5-fluoro-3-pyridyl)-3-isopropyl-pyrazolo[1,5-a]pyrimidin-7-amine]
< 500	Cc1[nH]c2ccc(F)cc2c1CCNc1nc(-c2cncc(F)c2)nc2c1ncn2C(C)C [I-69, N-[2-(5-Fluoro-2-methyl-1H-indol-3-yl)ethyl]-2-(5-fluoro-3-pyridyl)-9-isopropyl-purin-6-amine]
< 500	Cc1[nH]c2c(F)cccc2c1CCNc1nc(-c2cncc(F)c2)nc2c1ncn2C(C)C [I-71, N-[2-(7-Fluoro-2-methyl-1H-indol-3-yl)ethyl]-2-(5-fluoro-3-pyridyl)-9-isopropyl-purin-6-amine]
500 to 1000	Cc1[nH]c2c(F)cc(F)cc2c1CCNc1cc(OC(C)C)nc(-c2cncc(F)c2)n1 [I-74, N-[2-(5,7-Difluoro-2-methyl-1H-indol-3-yl)ethyl]-2-(5-fluoro-3-pyridyl)-6-isopropoxy-pyrimidin-4-amine]
> 1500	CC(C)c1cnn2c(N[C@H]3CCc4[nH]c5ccccc5c4C3)cc(-c3cncc(F)c3)nc12 [I-75b, (3S)—N-[5-(5-Fluoro-3-pyridyl)-3-isopropyl-pyrazolo[1,5-a]pyrimidin-7-yl]-2,3,4,9-tetrahydro-1H-carbazol-3-amine]
< 500	Cc1[nH]c2ccccc2c1CCNc1nc(-c2cncc(F)c2)nc2c1ncn2C(C)C [I-79, 2-(5-Fluoro-3-pyridyl)-9-isopropyl-N-[2-(2-methyl-1H-indol-3-yl)ethyl]purin-6-amine]
500 to 1000	CC(C)Oc1nc(NCCc2c[nH]c3ccccc23)cc(-c2cncc(F)c2)n1 [I-80, 6-(5-Fluoro-3-pyridyl)-N-[2-(1H-indol-3-yl)ethyl]-2-isopropoxy-pyrimidin-4-amine]
< 500	Cc1nn2c(NCCc3c[nH]c4ccccc34)cc(-c3cncc(F)c3)nc2c1C(C)C [I-83, 5-(5-Fluoro-3-pyridyl)-N-[2-(1H-indol-3-yl)ethyl]-3-isopropyl-2-methyl-pyrazolo[1,5-a]pyrimidin-7-amine]
> 1500	Cc1nn2c(NCCc3c(C)[nH]c4c(F)cc(F)cc34)cc(-c3cncc(F)c3)nc2c1C(C)C [I-84, N-[2-(5,7-Difluoro-2-methyl-1H-indol-3-yl)ethyl]-5-(5-fluoro-3-pyridyl)-3-isopropyl-2-methyl-pyrazolo[1,5-a]pyrimidin-7-amine]
500 to 1000	Cc1[nH]c2c(F)cc(F)cc2c1CCNc1cc(-c2cncc(F)c2)nc2ccnn12 [I-85, N-(2-(5,7-Difluoro-2-methyl-1H-indol-3-yl)ethyl)-5-(5-fluoropyridin-3-yl)pyrazolo[1,5-a]pyrimidin-7-amine]
< 500	Fc1cncc(-c2cc(NCCc3c[nH]c4ccccc34)n3ncc(C4CC4)c3n2)c1 [I-86, 3-Cyclopropyl-5-(5-fluoro-3-pyridyl)-N-[2-(1H-indol-3-yl)ethyl]pyrazolo[1,5-a]pyrimidin-7-amine]
< 500	Cc1[nH]c2c(F)cc(F)cc2c1CCNc1cc(-c2cncc(F)c2)nc2c(C3CC3)cnn12 [I-87, 3-Cyclopropyl-N-(2-(5,7-difluoro-2-methyl-1H-indol-3-yl)ethyl)-5-(5-fluoropyridin-3-yl)pyrazolo[1,5-a]pyrimidin-7-amine]
500 to 1000	CC(C)Oc1cc(NCCc2c[nH]c3c(F)cc(F)cc23)nc(-c2cncc(F)c2)n1 [I-88, N-[2-(5,7-Difluoro-1H-indol-3-yl)ethyl]-2-(5-fluoro-3-pyridyl)-6-isopropoxy-pyrimidin-4-amine]
< 500	Cc1[nH]c2ccccc2c1CCNc1cc(-c2cncc(F)c2)nc2c(C(C)C)cnn12 [I-89, 5-(5-fluoro-3-pyridyl)-3-isopropyl-N-[2-(2-methyl-1H-indol-3-yl)ethyl]pyrazolo[1,5-a]pyrimidin-7-amine]
< 500	Cc1[nH]c2c(F)cc(F)cc2c1CCNc1cc(-c2cncc(F)c2)nc2c(C(C)(C)C)cnn12 [I-91, 3-tert-Butyl-N-[2-(5,7-difluoro-2-methyl-1H-indol-3-yl)ethyl]-5-(5-fluoro-3-pyridyl)pyrazolo[1,5-a]pyrimidin-7-amine]
< 500	CC(C)N(C)c1cc(NCCc2c[nH]c3ccccc23)nc(-c2cncc(F)c2)n1 [I-93, 2-(5-Fluoro-3-pyridyl)-N6-[2-(1H-indol-3-yl)ethyl]-N4-isopropyl-N4-methyl-pyrimidine-4,6-diamine]
> 1500	CC(C)c1cnn2c(N[C@@H]3CCc4ccc(O)cc4C3)cc(-c3cncc(F)c3)nc12 [I-94a, (3R)-3-[[5-(5-fluoro-3-pyridyl)-3-isopropyl-pyrazolo[1,5-a]pyrimidin-7-yl]amino]tetralin-6-ol]

Structure (SMILES)	IC50 [nM]
N#Cc1cncc(-c2nc(NCCc3c[nH]c4ccccc34)cc(OC3CCCC3)n2)c1 [I-53, 5-[4-(Cyclopentoxy)-6-[2-(1H-indol-3-yl)ethylamino]pyrimidin-2-yl]pyridine-3-carbonitrile]	< 500
